Experimental data taken from ChEMBL document CHEMBL5046278, “Synthesis and Evaluation of Novel Tetrahydronaphthyridine CXCR4 Antagonists with Improved Drug-like Profiles” (J Med Chem, 2022).

Tests used:
[1] = Metabolic stability in human liver microsomes assessed compound remaining measured after 10 mins in presence of NADPH; assay type: ADME, Microsome; conditions: read-out: Stability
[2] = Antagonist activity at human CXCR4 receptor expressed in CCRF-CEM cells assessed as inhibition of CXCL12-induced calcium release by calcium flux assay; assay type: cell-based
[3] = target: Cytochrome P450 2D6 (Homo sapiens, UniProt P10635); experiment: Inhibition of recombinant human CYP2D6 using AMMC as substrate preincubated for 30 mins followed by substrate addition measured after 45 mins by fluorescence based assay; assay type: ADME
Cytochrome P450 2D6, sequence (P10635 whole entry): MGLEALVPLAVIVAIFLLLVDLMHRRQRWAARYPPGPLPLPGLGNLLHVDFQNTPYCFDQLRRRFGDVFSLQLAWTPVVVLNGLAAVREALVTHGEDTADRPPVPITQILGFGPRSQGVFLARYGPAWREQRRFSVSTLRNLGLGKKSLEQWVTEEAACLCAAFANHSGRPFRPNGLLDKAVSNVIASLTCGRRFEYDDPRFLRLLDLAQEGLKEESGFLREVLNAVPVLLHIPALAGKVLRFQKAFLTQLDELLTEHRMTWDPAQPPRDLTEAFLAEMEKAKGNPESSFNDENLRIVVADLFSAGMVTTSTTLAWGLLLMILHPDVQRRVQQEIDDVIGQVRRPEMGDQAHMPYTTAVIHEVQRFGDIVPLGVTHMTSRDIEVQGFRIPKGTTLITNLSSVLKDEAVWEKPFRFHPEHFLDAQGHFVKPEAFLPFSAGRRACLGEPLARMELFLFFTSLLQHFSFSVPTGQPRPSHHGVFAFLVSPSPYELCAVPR

[4] = Permeability of compound at pH 7.4 incubated for 4 hrs by PAMPA assay; assay type: ADME; conditions: read-out: permeability
[5] = Permeability of compound at pH 5.5 incubated for 4 hrs by PAMPA assay; assay type: ADME; conditions: read-out: permeability
[6] = Metabolic stability in rat liver microsomes assessed compound remaining measured after 10 mins in presence of NADPH; assay type: ADME, Microsome; conditions: read-out: Stability
[7] = Antagonist activity at mAChR (unknown origin) expressed in CCRF-CEM cells assessed as inhibition of calcium release by calcium flux assay; assay type: cell-based; conditions: Homo sapiens
[8] = Metabolic stability in mouse liver microsomes assessed compound remaining measured after 10 mins in presence of NADPH; assay type: ADME, Microsome; conditions: read-out: Stability

| remaining at 10 min [1] [%] | IC50 [2] [nM] | IC50 [3] [nM] | Papp at 4 h [4] [×10⁻⁶ cm/s] | Papp at 4 h [5] [×10⁻⁶ cm/s] | remaining at 10 min [6] [%] | IC50 [7] [nM] | remaining at 10 min [8] [%] | SMILES |
| --- | --- | --- | --- | --- | --- | --- | --- | --- |
| 62 | 3000 | > 20000 | 32 | 6.2 | 72 | > 33000 | 33 | c1cnc2c(c1)CN[C@@H](CN(CCCCN(C1COC1)C1COC1)[C@H]1CCCc3cccnc31)C2 |
| 98 | 550 | 9700 | 0.7 | 0.2 | 55 | – | 75 | NCCCCN(C[C@@H]1Cc2ncccc2CN1)[C@H]1CCCc2cccnc21 |
| 91 | 930 | 13000 | 0.2 | 0.7 | 1 | > 17000 | 32 | NC(=O)NCCCCN(C[C@H]1Cc2ncccc2CN1)[C@H]1CCCc2cccnc21 |
| 88 | 29 | 15000 | 5.2 | – | 10 | 31000 | 47 | FC1(F)CCC(NCCCCN(C[C@H]2Cc3ncccc3CN2)[C@H]2CCCc3cccnc32)CC1 |
| 100 | 110 | 2700 | 6.9 | 2 | 78 | 26000 | 53 | NCc1ccc(CN(C[C@H]2Cc3ncccc3CN2)[C@H]2CCCc3cccnc32)cc1 |
| 92 | 220 | 4400 | 7.7 | – | 37 | – | 25 | NCCCCN(C[C@@H]1Cc2cccnc2CN1)[C@H]1CCCc2cccnc21 |
| 87 | 130 | > 20000 | 0.2 | 0.2 | 67 | – | 73 | NCCCCN(C[C@@H]1Cc2nccnc2CN1)[C@H]1CCCc2cccnc21 |
| 84 | 42 | > 20000 | 0.2 | 0.2 | 50 | < 33000 | 77 | NCCCCN(C[C@H]1Cc2nccnc2CN1)[C@H]1CCCc2cccnc21 |
| 100 | > 33000 | 2700 | 100 | 23 | 1 | < 17000 | 0 | CN(C[C@@H]1Cc2ncccc2CN1)[C@H]1CCCc2cccnc21 |
| 100 | 270 | 10000 | 24 | 0.2 | 27 | > 17000 | 55 | CN(C)CCCCN(C[C@H]1Cc2ncccc2CN1)[C@H]1CCCc2cccnc21 |
| 85 | 150 | 700 | 1.5 | 0.2 | 11 | 28000 | 37 | NC/C=C/CN(C[C@H]1Cc2ncccc2CN1)[C@H]1CCCc2cccnc21 |
| 95 | 480 | 2800 | 130 | 46 | 7 | < 17000 | 53 | CN(C[C@H]1Cc2ncccc2CN1)[C@H]1CCCc2cccnc21 |
| 100 | 460 | 20000 | 0.2 | 0.5 | 1 | > 17000 | 10 | NC(=O)NC/C=C\CN(C[C@H]1Cc2ncccc2CN1)[C@H]1CCCc2cccnc21 |
| 85 | 26 | 13000 | 6.8 | 2.8 | 11 | 180 | 37 | NC/C=C\CN(C[C@H]1Cc2ncccc2CN1)[C@H]1CCCc2cccnc21 |
